pIC50: −log10 of the molar value.
Biological target: p38 map kinase (Homo sapiens, UniProt Q16539)
Assay: P 38 Map Kinase Assay (SPA [33-P] serine/threonine kinase assay)
Type: biochemical
Settings: 10 μM ATP, 2.5 μM biotinylated myelin basic protein substrate, 500 ng/well enzyme, 90 min, 30° C.
Text: The assay makes use of the serine/theonine protein kinase SPA [33-P]+assay kit from Amersham Phamacia Biotech. The assay is a homogeneous technique using SPA technology for the quantification of serine threonine kinase activity.
It is based on the p38 map kinase catalysed transfer of the γ-phosphate group of the [γ-^33P] […] to the substrate, biotinylated myelin basic protein (MBP). The resulting [^33P]-labelled biotinylated product is trapped on a PVT SPA bead containing scintillant which has been surface coated with streptavidin.
The beads are allowed to settle to eliminate high background, and therefore only ^33P labelled product attached to the SPA bead is detected.
The assay is carried out in the presence and absence of test compounds to determine their effect on p38 map kinase activity.
A test protocol is as follows:
• 1. SPA assay kit (Amersham). Components: • Assay buffer (store frozen) • Stop solution (store frozen). • Streptavidin coated SPA beads—reconstitute with 5 mls of PBS. (50 mg/ml). (Store in fridge) • 2. p 38 map kinase enzyme SCRD (500 μg/ml)—aliquoted in 1.5 mls. • dilute 1:10 to 50 μg/ml • 1 plate—110 μl (stock 500 μg/ml)+990 μl PBS. • 3. Assay reagent: • for 1 plate: 504 μl Assay buffer (500 Mm MOPS pH 7.2, 10 μM ATP, 50 mM MgCl2, 25 μM biotinylated myelin basic protein (MBP)). • 2513.4 μl Water • 1.1 μl 33-p-ATP (10 μCi/ul) (on activity date/adjust for activity date) • 4.534 μl×10^-2M ATP in water • 4. Stop solution: • for 1 plate: 265.92 μl streptavidin coated beads (50 mg/ml) • 1651.684 μl stop buffer (500 μM ATP, 50 mM EDTA 1% Triton X-100) • 7084.32 μl PBS. • 1. Add 10 μl compound Dilutons (5× final conc) Test wells. • 2. Add 10 μl 12.5% DMSO to control/blank wells. • 3. Add 10 μl enzyme (50 μg/ml) final conc 500 ng/well • 4. Add 10 μl PBS to blank wells. • 5. Add 30 μl of assay reagent to each well. (final conc 10 μM ATP, 2.5 μM substrate) • 6. Mix well on plate shaker. • 7. Incubate 90 min (30° C.) • 8. Add 75 μl of stop solution to each well (final conc 55 μM ATP) • 9. Spin plate: −3 min/1600 rpm/20° C. (alternatively leave to settle overnight) • 10. Read in Microbeta, Protocol SPA paralux 3.

Chain of p38 map kinase (Q16539 whole entry): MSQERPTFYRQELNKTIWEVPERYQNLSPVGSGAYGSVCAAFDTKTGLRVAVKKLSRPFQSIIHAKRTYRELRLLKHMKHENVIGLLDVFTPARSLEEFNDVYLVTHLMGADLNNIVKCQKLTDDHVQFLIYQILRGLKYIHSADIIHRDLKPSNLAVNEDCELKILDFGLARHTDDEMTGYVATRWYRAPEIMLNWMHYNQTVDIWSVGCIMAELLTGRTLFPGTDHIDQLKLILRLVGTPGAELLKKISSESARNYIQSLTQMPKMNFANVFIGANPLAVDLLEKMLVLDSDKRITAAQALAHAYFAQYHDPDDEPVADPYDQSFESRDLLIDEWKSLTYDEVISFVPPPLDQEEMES

O=C(c1ccc(F)cc1F)c1ccc(=O)n2c1N[C@@H]1CCCC[C@@H]12 (racemic) [Example 1, (Rac-cis-5a,9a)-4-(2,4-difluorobenzoyl)-5a,6,7,8,9,9a-hexahydropyrido[1,2-a]benzimidazol-1(5H)-one]
pIC50: 6.47

O=C(c1ccccc1)c1ccc(=O)n2c1N[C@@H]1CCCC[C@@H]12 (racemic) [Example 3, (Rac-cis-5a,9a)-4-benzoyl-5a,6,7,8,9,9a-hexahydropyrido[1,2-a]benzimidazol-1(5H)-one]
pIC50: 6.34

O=C(c1cccc(Cl)c1)c1ccc(=O)n2c1N[C@@H]1CCCC[C@@H]12 (racemic) [Example 9, (Rac-cis-5a,9a)-4-(3-chlorobenzoyl)-5a,6,7,8,9,9a-hexahydropyrido[1,2-a]benzimidazol-1(5H)-one]
pIC50: 6.64

O=C(c1ccc(F)cc1F)c1ccc(=O)n2c1N[C@H]1CCCC[C@@H]12 [Example 2-1, (5aS,9aS)-4-(2,4-difluorobenzoyl)-5a,6,7,8,9,9a-hexahydropyrido[1,2-a]benzimidazol-1(5H)-one]
pIC50: 6.79

CC1(C)Cn2c(c(C(=O)c3ccc(Cl)cc3)ccc2=O)N1 [Example 21]
pIC50: 5.75

CC1(C)CNc2c(C(=O)c3ccc(F)cc3)ccc(=O)n2C1 [Example 24, 9-(4-Fluorobenzoyl)-3,3-dimethyl-1,2,3,4-tetrahydro-6H-pyrido[1,2-a]pyrimidin-6-one]
pIC50: 6.41

— US20050070555A1, “Aroyl pyridinones” (Bayer HealthCare AG, priority 2001, published 2005)
